Test results from patent publication US20240148821A1, “PHARMACEUTICAL USE OF CYCLIC PEPTIDE COMPOUND” (CHUGAI SEIYAKU KABUSHIKI KAISHA, priority 2021, published 2024).
Bridge positions count the residues as written; N and C are the ends. Square brackets hold non-standard residues; d marks the D form. Peptide text beside a SMILES is read from it. * marks the point of attachment. hPhe(3-Cl-4-CF3) = N[C@@H](CCc1ccc(C(F)(F)F)c(Cl)c1)C(=O)O; hPhe(3-F,4-CF3) = N[C@@H](CCc1ccc(C(F)(F)F)c(F)c1)C(=O)O; NMePhe(4-CF3) = CN[C@@H](Cc1ccc(C(F)(F)F)cc1)C(=O)O; 3Oxa8azabicyclo(3.2.1)octane = C1CC2COCC1N2*; NEtPhe(4-Me) = CCN[C@@H](Cc1ccc(C)cc1)C(=O)O; NMePhe(4-Me) = CN[C@@H](Cc1ccc(C)cc1)C(=O)O; NMeAla(cPent) = CN[C@@H](CC1CCCC1)C(=O)O; NMeGly(cPent) = CN[C@H](C(=O)O)C1CCCC1; Gly(cPent) = N[C@H](C(=O)O)C1CCCC1; NMeCha = CN[C@@H](CC1CCCCC1)C(=O)O; NMehLeu = CN[C@@H](CCC(C)C)C(=O)O; NEtLeu = CCN[C@@H](CC(C)C)C(=O)O; NMeI = CC[C@H](C)[C@H](NC)C(=O)O; Piperidide(4-Me) = CC1CCN(*)CC1; X17 = FC1(F)CN(*)CC(F)(F)C1(F)F; NMeD = CN[C@@H](CC(=O)O)C(=O)O; NMeL = CN[C@@H](CC(C)C)C(=O)O; NMeV = CN[C@H](C(=O)O)C(C)C; d(β3hA) = C[C@@H](N)CC(=O)O; Azetidin(1-yl) = C1CN(*)C1; NMeS = CN[C@@H](CO)C(=O)O; Morpholide = C1CN(*)CCO1; NMeA = CN[C@@H](C)C(=O)O; Pyrrolidide = C1CCN(*)C1; Ac5c = NC1(C(=O)O)CCCC1; Aze = O=C(O)[C@@H]1CCN1; NEtG = CCNCC(=O)O; Sar = CNCC(=O)O; Propyl = CCC*

target: protein-protein interaction between Kras and SOS1 (biotin-tagged human Kras loaded with GDP, His-tagged human SOS1) (Homo sapiens (Human), UniProt P01116, G12D); test: Protein-protein interaction inhibition between Kras and SOS1 (KrasG12D-SOS PPI) using AlphaScreen; assay type: biochemical; settings: AlphaScreen; biotin-tagged human Kras loaded with GDP, His-tagged human SOS1; read-out: KRAS G12D-SOS PPI IC50;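 note: kras produced in E. coli, Ni-coupled donor beads and streptavidin acceptor beads, excitation 680 nm with emission detected at 520–620 nm via singlet oxygen transfer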

Row | Structure (SMILES) | IC50 [nM]
1 | CC[C@H](C)[C@@H]1NC(=O)[C@H](CC(C)C)N(CC)C(=O)C[C@@H](C(=O)N2CCCC2)N(C)C(=O)[C@H]([C@@H](C)CC)N(C)C(=O)C2(CCCC2)NC(=O)[C@@H]2CCCN2C(=O)[C@H](CCc2ccc(C(F)(F)F)c(Cl)c2)NC(=O)CN(C)C(=O)[C@H](Cc2ccc(C(F)(F)F)cc2)N(C)C(=O)[C@@H]2CCN2C(=O)[C@H](C)NC1=O [Compound 1146] ([NEtLeu]IA[Aze][NMePhe(4-CF3)][Sar][hPhe(3-Cl-4-CF3)]P[Ac5c][NMeI][NMeD]-Pyrrolidide; lactam N-11) | 1.9
2 | CCCOC[C@H]1C(=O)N(C)CC(=O)N[C@@H](CCc2ccc(C(F)(F)F)c(Cl)c2)C(=O)N2CCC[C@H]2C(=O)NC2(CCCC2)C(=O)N(C)[C@@H](C2CCCC2)C(=O)N(C)[C@H](C(=O)N2C3CCC2COC3)CC(=O)N(C)[C@@H](CCC(C)C)C(=O)N[C@@H]([C@@H](C)CC)C(=O)N(C)[C@@H](C)C(=O)N2CC[C@H]2C(=O)N1C [Compound 1154] ([NMehLeu]I[NMeA][Aze][NMeS](Propyl)[Sar][hPhe(3-Cl-4-CF3)]P[Ac5c][NMeGly(cPent)][NMeD]-{3Oxa8azabicyclo(3.2.1)octane}; lactam N-11) | 2.4
3 | CC[C@H](C)[C@@H]1NC(=O)[C@H](CC(C)C)N(C)C(=O)C[C@@H](C(=O)N2CCCC2)N(C)C(=O)[C@H]([C@@H](C)CC)N(C)C(=O)C2(CCCC2)NC(=O)[C@@H]2CCCN2C(=O)[C@H](CCc2ccc(C(F)(F)F)c(Cl)c2)NC(=O)CN(CC)C(=O)[C@H](Cc2ccc(C(F)(F)F)cc2)N(C)C(=O)[C@@H]2CCN2C(=O)[C@H](C)N(C)C1=O [Compound 1159] ([NMeL]I[NMeA][Aze][NMePhe(4-CF3)][NEtG][hPhe(3-Cl-4-CF3)]P[Ac5c][NMeI][NMeD]-Pyrrolidide; lactam N-11) | 2.8
4 | CC[C@H](C)[C@@H]1NC(=O)[C@H](CC(C)C)N(C)C(=O)C[C@@H](C(=O)N2CCC(C)CC2)NC(=O)[C@H](C(C)C)N(C)C(=O)C2(CCCC2)NC(=O)[C@@H]2CCCN2C(=O)[C@H](CCc2ccc(C(F)(F)F)c(Cl)c2)NC(=O)CN(C)C(=O)[C@H](CC2CCCCC2)N(C)C(=O)[C@@H]2CCN2C(=O)[C@H](C)N(C)C1=O [Compound 1161] ([NMeL]I[NMeA][Aze][NMeCha][Sar][hPhe(3-Cl-4-CF3)]P[Ac5c][NMeV]D-{Piperidide(4-Me)}; lactam N-11) | 60
5 | CC[C@H](C)[C@@H]1NC(=O)[C@H](CC(C)C)N(C)C(=O)C[C@@H](C(=O)N(C)C)N(C)C(=O)[C@H](C2CCCC2)N(C)C(=O)C2(CCCC2)NC(=O)[C@@H]2CCCN2C(=O)[C@H](CCc2ccc(C(F)(F)F)c(F)c2)NC(=O)CN(C)C(=O)[C@H](CC2CCCCC2)N(C)C(=O)[C@@H]2CCN2C(=O)[C@H](C)NC1=O [Compound 1164] ([NMeL]IA[Aze][NMeCha][Sar][hPhe(3-F,4-CF3)]P[Ac5c][NMeGly(cPent)][NMeD]-NMe2; lactam N-11) | 1.4
6 | CCCOC[C@H]1C(=O)N(C)CC(=O)N[C@@H](CCc2ccc(C(F)(F)F)c(Cl)c2)C(=O)N2CCC[C@H]2C(=O)NC2(CCCC2)C(=O)N(C)[C@@H](C2CCCC2)C(=O)N(C)[C@H](C(=O)N2C3CCC2COC3)CC(=O)N(CC)[C@@H](CC(C)C)C(=O)N[C@@H]([C@@H](C)CC)C(=O)N[C@@H](C)C(=O)N2CC[C@H]2C(=O)N1C [Compound 1167] ([NEtLeu]IA[Aze][NMeS](Propyl)[Sar][hPhe(3-Cl-4-CF3)]P[Ac5c][NMeGly(cPent)][NMeD]-{3Oxa8azabicyclo(3.2.1)octane}; lactam N-11) | 8.7
7 | CC[C@H](C)[C@@H]1NC(=O)[C@H](CCC(C)C)N(C)C(=O)C[C@@H](C(=O)N2CCOCC2)N(C)C(=O)[C@H](C2CCCC2)N(C)C(=O)C2(CCCC2)NC(=O)[C@@H]2CCCN2C(=O)[C@H](CCc2ccc(C(F)(F)F)c(Cl)c2)NC(=O)CN(C)C(=O)[C@H](CC2CCCCC2)N(C)C(=O)[C@@H]2CCN2C(=O)[C@H](C)NC1=O [Compound 1171] ([NMehLeu]IA[Aze][NMeCha][Sar][hPhe(3-Cl-4-CF3)]P[Ac5c][NMeGly(cPent)][NMeD]-Morpholide; lactam N-11) | 0.99
8 | CC[C@H](C)[C@@H]1NC(=O)[C@H](CC2CCCC2)N(C)C(=O)C[C@@H](C(=O)N2CCOCC2)N(C)C(=O)[C@H](C2CCCC2)N(C)C(=O)C2(CCCC2)NC(=O)[C@@H]2CCCN2C(=O)[C@H](CCc2ccc(C(F)(F)F)c(Cl)c2)NC(=O)CN(C)C(=O)[C@H](CC2CCCCC2)N(C)C(=O)[C@@H]2CCN2C(=O)[C@H](C)NC1=O [Compound 1176] ([NMeAla(cPent)]IA[Aze][NMeCha][Sar][hPhe(3-Cl-4-CF3)]P[Ac5c][NMeGly(cPent)][NMeD]-Morpholide; lactam N-11) | 0.8
9 | CCCOC[C@H]1C(=O)N(C)CC(=O)N[C@@H](CCc2ccc(C(F)(F)F)c(Cl)c2)C(=O)N2CCC[C@H]2C(=O)NC2(CCCC2)C(=O)N(C)[C@@H](C2CCCC2)C(=O)N(C)[C@H](C(=O)N2C3CCC2COC3)CC(=O)N(CC)[C@@H](CC(C)C)C(=O)N[C@@H]([C@@H](C)CC)C(=O)N(C)[C@@H](C)C(=O)N2CC[C@H]2C(=O)N1C [Compound 1193] ([NEtLeu]I[NMeA][Aze][NMeS](Propyl)[Sar][hPhe(3-Cl-4-CF3)]P[Ac5c][NMeGly(cPent)][NMeD]-{3Oxa8azabicyclo(3.2.1)octane}; lactam N-11) | 2.1
10 | CC[C@H](C)[C@@H]1NC(=O)[C@H](CC(C)C)N(CC)C(=O)C[C@@H](C(=O)N2CCC2)N(C)C(=O)[C@H](C2CCCC2)N(C)C(=O)C2(CCCC2)NC(=O)[C@@H]2CCCN2C(=O)[C@H](CCc2ccc(C(F)(F)F)c(Cl)c2)NC(=O)CN(C)C(=O)[C@H](CC2CCCCC2)N(C)C(=O)[C@@H]2CCN2C(=O)[C@H](C)N(C)C1=O [Compound 1198] ([NEtLeu]I[NMeA][Aze][NMeCha][Sar][hPhe(3-Cl-4-CF3)]P[Ac5c][NMeGly(cPent)][NMeD]-{Azetidin(1-yl)}; lactam N-11) | 1.2
11 | CC[C@H](C)[C@@H]1NC(=O)[C@H](CC(C)C)N(C)C(=O)C[C@@H](C)NC(=O)[C@H](C2CCCC2)NC(=O)C2(CCCC2)NC(=O)[C@@H]2CCCN2C(=O)[C@H](CCc2ccc(C(F)(F)F)c(Cl)c2)NC(=O)CN(C)C(=O)[C@H](Cc2ccc(C)cc2)N(C)C(=O)[C@@H]2CCN2C(=O)[C@H](C)N(C)C1=O [Compound 1213] (cyclo([Ac5c][Gly(cPent)][d(β3hA)][NMeL]I[NMeA][Aze][NMePhe(4-Me)][Sar][hPhe(3-Cl-4-CF3)]P)) | 17
12 | CC[C@H](C)[C@@H]1NC(=O)[C@H](CCC(C)C)N(C)C(=O)C[C@@H](C(=O)N2CCOCC2)N(C)C(=O)[C@H](C2CCCC2)N(C)C(=O)C2(CCCC2)NC(=O)[C@@H]2CCCN2C(=O)[C@H](CCc2ccc(C(F)(F)F)c(Cl)c2)NC(=O)CN(C)C(=O)[C@H](C2CCCC2)N(C)C(=O)[C@@H]2CCN2C(=O)[C@H](C)NC1=O [Compound 1223] ([NMehLeu]IA[Aze][NMeGly(cPent)][Sar][hPhe(3-Cl-4-CF3)]P[Ac5c][NMeGly(cPent)][NMeD]-Morpholide; lactam N-11) | 1.2
13 | CC[C@H](C)[C@@H]1NC(=O)[C@H](CC(C)C)N(CC)C(=O)C[C@@H](C(=O)N2CCOCC2)N(C)C(=O)[C@H]([C@@H](C)CC)N(C)C(=O)C2(CCCC2)NC(=O)[C@@H]2CCCN2C(=O)[C@H](CCc2ccc(C(F)(F)F)c(Cl)c2)NC(=O)CN(C)C(=O)[C@H](Cc2ccc(C(F)(F)F)cc2)N(C)C(=O)[C@@H]2CCN2C(=O)[C@H](C)NC1=O [Compound 1233] ([NEtLeu]IA[Aze][NMePhe(4-CF3)][Sar][hPhe(3-Cl-4-CF3)]P[Ac5c][NMeI][NMeD]-Morpholide; lactam N-11) | 2.5
14 | CC[C@H](C)[C@@H]1NC(=O)[C@H](CC(C)C)N(C)C(=O)C[C@@H](C(=O)N2C3CCC2COC3)N(C)C(=O)[C@H](C2CCCC2)N(C)C(=O)C2(CCCC2)NC(=O)[C@@H]2CCCN2C(=O)[C@H](CCc2ccc(C(F)(F)F)c(Cl)c2)NC(=O)CN(C)C(=O)[C@H](Cc2ccc(C)cc2)N(CC)C(=O)[C@@H]2CCN2C(=O)[C@H](C)N(C)C1=O [Compound 1236] ([NMeL]I[NMeA][Aze][NEtPhe(4-Me)][Sar][hPhe(3-Cl-4-CF3)]P[Ac5c][NMeGly(cPent)][NMeD]-{3Oxa8azabicyclo(3.2.1)octane}; lactam N-11) | 7.3
15 | CCCOC[C@H]1C(=O)N(C)CC(=O)N[C@@H](CCc2ccc(C(F)(F)F)c(Cl)c2)C(=O)N2CCC[C@H]2C(=O)NC2(CCCC2)C(=O)N(C)[C@@H](C2CCCC2)C(=O)N(C)[C@H](C(=O)N2C3CCC2COC3)CC(=O)N(C)[C@@H](CC2CCCC2)C(=O)N[C@@H]([C@@H](C)CC)C(=O)N(C)[C@@H](C)C(=O)N2CC[C@H]2C(=O)N1C [Compound 1251] ([NMeAla(cPent)]I[NMeA][Aze][NMeS](Propyl)[Sar][hPhe(3-Cl-4-CF3)]P[Ac5c][NMeGly(cPent)][NMeD]-{3Oxa8azabicyclo(3.2.1)octane}; lactam N-11) | 2.6
16 | CC[C@H](C)[C@@H]1NC(=O)[C@H](CC(C)C)N(CC)C(=O)C[C@@H](C(=O)N2CCC2)N(C)C(=O)[C@H](C2CCCC2)N(C)C(=O)C2(CCCC2)NC(=O)[C@@H]2CCCN2C(=O)[C@H](CCc2ccc(C(F)(F)F)c(Cl)c2)NC(=O)CN(C)C(=O)[C@H](CC2CCCCC2)N(C)C(=O)[C@@H]2CCN2C(=O)[C@H](C)NC1=O [Compound 1262] ([NEtLeu]IA[Aze][NMeCha][Sar][hPhe(3-Cl-4-CF3)]P[Ac5c][NMeGly(cPent)][NMeD]-{Azetidin(1-yl)}; lactam N-11) | 1.3
17 | CC[C@H](C)[C@@H]1NC(=O)[C@H](CC(C)C)N(C)C(=O)C[C@@H](C(=O)N2CC(F)(F)C(F)(F)C(F)(F)C2)NC(=O)[C@H]([C@@H](C)CC)N(C)C(=O)C2(CCCC2)NC(=O)[C@@H]2CCCN2C(=O)[C@H](CCc2ccc(C(F)(F)F)c(Cl)c2)NC(=O)CN(C)C(=O)[C@H](CC2CCCCC2)N(C)C(=O)CN(C)C(=O)CN(C)C1=O [Compound 1265] ([NMeL]I[Sar][Sar][NMeCha][Sar][hPhe(3-Cl-4-CF3)]P[Ac5c][NMeI]D-X17; lactam N-11) | 280
